Test results published in US12377083B2 (WUHAN LL SCIENCE AND TECHNOLOGY DEVELOPMENT CO., LTD., priority 2019, dated 2025).

What was measured:
[1] = target: hLPAR1 (human lysophosphatidic acid receptor 1) (Homo sapiens, UniProt Q92633); test: FLIPR assay of intracellular calcium increase induced by activation of hLPAR1 expressed in CHO-K1 cells; type: cell-based; conditions: CHO-K1 cells expressing hLPAR1, agonist oleoyl-L-α-lysophosphatidic acid 1 μM; read-out: LPAR1 IC50
Outline: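 CHO-K1 cells expressing hLPAR1 were loaded with Fluo-4 AM for 1.0 h at 37° C, then preincubated 30 min at room temperature with compound. Oleoyl-LPA was added at 1 μM final, and calcium fluorescence was recorded by FLIPR for 2 min at 1-s intervals to assess antagonism.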

HepG2 cells = test: In vitro cytotoxicity assay in HepG2 cells, CCK-8 method; type: cell-based; conditions: 48 h
Outline: (§1)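 Cells plated at 50,000/well, grown overnight to 80-90% confluence, then given fresh medium with graded compound or DMSO for 48 h at 37°C, 5% CO2. After PBS washes, CCK-8 added for 1.5 h at 37°C in the dark; OD450 read and CC50 calculated.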

[2] = tested on: A2058 (human melanoma cells); test: A2058 cell scratch (migration) assay with LPA; type: cell-based; conditions: 10 μM LPA, scratch area at 24 h
[3] = In vitro metabolic stability, rat liver microsomes; type: in vitro ADME; conditions: 1 mg/mL liver microsome protein, 37° C., read-out: Metabolism in rat liver microsome T½ min
Protocol: (§2) The in vitro metabolic stability of the compounds disclosed herein was determined through incubation of liver microsomes of various species. A proper amount of test compound was added into a liver microsome reaction system (1 mg/mL liver microsome protein, 25 U/mL glucose-6 phosphate dehydrogenase, 1 mM NADP, 6 mM D-glucose 6-phosphate and 5 mM MgCl2), and then the mixture was incubated in a water bath kettle at 37° C. to start reaction. At each time point, 100 μL of the reaction system was added into a centrifuge tube containing 400 μL of internal standard working solution (containing a 200 ng/mL solution of dexamethasone, diclofenac, tolbutamide and labetalol in acetonitrile) precooled at 0° C. so as to stop the reaction, and the mixture was then centrifuged at 10,000 g for 10 min at 4° C. The supernatant was collected for LC-MS assay so as to obtain the values of in vitro metabolic half-life of the test compounds in liver microsomes of various species.

[4] = In vitro metabolic stability, mouse liver microsomes; type: in vitro ADME; conditions: 1 mg/mL liver microsome protein, 37° C., read-out: Metabolism in mouse liver microsome T½ min
Protocol: as §2

[5] = In vitro metabolic stability, human liver microsomes; type: in vitro ADME; conditions: 1 mg/mL liver microsome protein, 37° C., read-out: Metabolism in human liver microsome T½ min
Protocol: as §2

[6] = In vitro cytotoxicity assay in HepG2 cells, CCK-8 method; type: cell-based; conditions: human
Outline: as §1

Chain of hLPAR1 (human lysophosphatidic acid receptor 1) (Q92633 whole entry): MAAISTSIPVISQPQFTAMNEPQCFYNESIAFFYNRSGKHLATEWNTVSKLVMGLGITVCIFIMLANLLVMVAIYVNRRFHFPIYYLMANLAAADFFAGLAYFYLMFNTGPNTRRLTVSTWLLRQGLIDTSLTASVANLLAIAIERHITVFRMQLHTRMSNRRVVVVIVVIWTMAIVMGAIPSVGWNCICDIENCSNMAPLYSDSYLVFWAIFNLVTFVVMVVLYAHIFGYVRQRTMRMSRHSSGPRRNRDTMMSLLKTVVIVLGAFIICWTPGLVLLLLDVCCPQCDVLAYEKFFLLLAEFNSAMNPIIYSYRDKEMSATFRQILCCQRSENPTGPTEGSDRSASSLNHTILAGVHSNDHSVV

IC50 [1]	half-life [3]	half-life [4]	half-life [5]	SMILES	CC50 (HepG2 cells)	Cell migration inhibition rate (%) [2]	CC50 at 48 h [6]
< 0.05 µM	> 30 min	> 0.5 h	> 30 min	CN(C(=O)OCc1c(-c2ccc(O[C@H]3CCC[C@H](C(=O)O)C3)c(F)c2)cnn1C)C1CCCC1 (racemic) [Compound 20, (+/−)-(1S,3S)-3-(4-(5-(((cyclopentyl(methyl)carbamoyl)oxy)methyl)-1-methyl-1H-pyrazol-4-yl)-2-fluorophenoxy)cyclohexane-1-carboxylic Acid]	–	B (B: 30-50%)	> 200 µM
< 0.05 µM	~30 min	> 0.5 h	> 30 min	CN(C(=O)OCc1c(-c2ccc(O[C@H]3CCC[C@H](C(=O)O)C3)c(F)n2)cnn1C)C1CCCC1 (racemic) [Compound 62, (+/−)-(1S,3S)-3-((6-(5-(((cyclopentyl(methyl)carbamoyl)oxy)methyl)-1-methyl-1H-pyrazol-4-yl)-2-fluoropyridin-3-yl)oxy)cyclohexane-1-carboxylic Acid]	–	A (A: 50-70%)	> 200 µM
< 0.05 µM	44.9 min	8.96 h	386 min	CN(C(=O)OCc1c(-c2ccc(O[C@H]3CCC[C@H](C(=O)O)C3)c(C(F)F)n2)cnn1C)C1CCCC1 (racemic) [Compound 63, (+/−)-(1S,3S)-3-((6-(5-(((cyclopentyl(methyl)carbamoyl)oxy)methyl)-1-methyl-1H-pyrazol-4-yl)-2-(difluoromethyl)pyridin-3-yl)oxy)cyclohexane-1-carboxylic Acid]	–	B (B: 30-50%)	> 200 µM
0.05 to 0.3 µM	57.5 min	61.2 h	449 min	CN(C(=O)OCc1c(-c2ccc(O[C@H]3CCC[C@H](C(=O)O)C3)c(CF)n2)cnn1C)C1CCCC1 (racemic) [Compound 89]	–	A (A: 50-70%)	14.3 µM

Second part, the molecule before the results:

SMILES	IC50 [1]	half-life [3]	half-life [4]	half-life [5]	CC50 (HepG2 cells)	Cell migration inhibition rate (%) [2]	CC50 at 48 h [6]
CN(C(=O)OCc1c(-c2ccc(O[C@H]3CCC[C@H](C(=O)O)C3)cn2)ncn1C)C1CCCC1 (racemic) [Compound 19, (+/−)-(1S,3S)-3-((6-(5-(((cyclopentyl(methyl)carbamoyl)oxy)methyl)-1-methyl-1H-imidazol-4-yl)pyridin-3-yl)oxy)cyclohexane-1-carboxylic Acid]	0.3 to 10 µM	–	–	–	> 200 µM	C (C: 0-30%)	–
Cc1nsc(-c2ccc(O[C@H]3CCC[C@H](C(=O)O)C3)cc2)c1COC(=O)N(C)C1CCCC1 (racemic) [Compound 28, (+/−)-(1S,3S)-3-(4-(4-(((cyclopentyl(methyl)carbamoyl)oxy)methyl)-3-methylisothiazol-5-yl)phenoxy)cyclohexane-1-carboxylic Acid]	< 0.05 µM	< 30 min	> 0.5 h	> 30 min	–	A (A: 50-70%)	> 200 µM
Cc1nc(-c2onc(C)c2COC(=O)N(C)C2CCCC2)ccc1O[C@H]1CCC[C@H](C(=O)O)C1 (racemic) [Compound 36]	< 0.05 µM	28.4 min	5.66 h	145 min	–	A (A: 50-70%)	> 200 µM
